Assay results taken from patent publication US20240150377A1, “MODULATORS OF CYSTIC FIBROSIS TRANSMEMBRANE CONDUCTANCE REGULATOR” (VERTEX PHARMACEUTICALS INCORPORATED, priority 2020, published 2024).
Where two headings read alike, the source gives them in different places. Values belong to the compound of their own block, whether it stands above or below them.

Target: T1, CFTR (Homo sapiens, UniProt P13569, DEL508-508)
T1 construct: endogenous in cells; host or cells: primary human bronchial epithelial cells from CF subjects (F508del/MF-HBE), differentiated at air-liquid interface
T1 sequence (P13569 with tags, fused parts or gaps DEL508-508): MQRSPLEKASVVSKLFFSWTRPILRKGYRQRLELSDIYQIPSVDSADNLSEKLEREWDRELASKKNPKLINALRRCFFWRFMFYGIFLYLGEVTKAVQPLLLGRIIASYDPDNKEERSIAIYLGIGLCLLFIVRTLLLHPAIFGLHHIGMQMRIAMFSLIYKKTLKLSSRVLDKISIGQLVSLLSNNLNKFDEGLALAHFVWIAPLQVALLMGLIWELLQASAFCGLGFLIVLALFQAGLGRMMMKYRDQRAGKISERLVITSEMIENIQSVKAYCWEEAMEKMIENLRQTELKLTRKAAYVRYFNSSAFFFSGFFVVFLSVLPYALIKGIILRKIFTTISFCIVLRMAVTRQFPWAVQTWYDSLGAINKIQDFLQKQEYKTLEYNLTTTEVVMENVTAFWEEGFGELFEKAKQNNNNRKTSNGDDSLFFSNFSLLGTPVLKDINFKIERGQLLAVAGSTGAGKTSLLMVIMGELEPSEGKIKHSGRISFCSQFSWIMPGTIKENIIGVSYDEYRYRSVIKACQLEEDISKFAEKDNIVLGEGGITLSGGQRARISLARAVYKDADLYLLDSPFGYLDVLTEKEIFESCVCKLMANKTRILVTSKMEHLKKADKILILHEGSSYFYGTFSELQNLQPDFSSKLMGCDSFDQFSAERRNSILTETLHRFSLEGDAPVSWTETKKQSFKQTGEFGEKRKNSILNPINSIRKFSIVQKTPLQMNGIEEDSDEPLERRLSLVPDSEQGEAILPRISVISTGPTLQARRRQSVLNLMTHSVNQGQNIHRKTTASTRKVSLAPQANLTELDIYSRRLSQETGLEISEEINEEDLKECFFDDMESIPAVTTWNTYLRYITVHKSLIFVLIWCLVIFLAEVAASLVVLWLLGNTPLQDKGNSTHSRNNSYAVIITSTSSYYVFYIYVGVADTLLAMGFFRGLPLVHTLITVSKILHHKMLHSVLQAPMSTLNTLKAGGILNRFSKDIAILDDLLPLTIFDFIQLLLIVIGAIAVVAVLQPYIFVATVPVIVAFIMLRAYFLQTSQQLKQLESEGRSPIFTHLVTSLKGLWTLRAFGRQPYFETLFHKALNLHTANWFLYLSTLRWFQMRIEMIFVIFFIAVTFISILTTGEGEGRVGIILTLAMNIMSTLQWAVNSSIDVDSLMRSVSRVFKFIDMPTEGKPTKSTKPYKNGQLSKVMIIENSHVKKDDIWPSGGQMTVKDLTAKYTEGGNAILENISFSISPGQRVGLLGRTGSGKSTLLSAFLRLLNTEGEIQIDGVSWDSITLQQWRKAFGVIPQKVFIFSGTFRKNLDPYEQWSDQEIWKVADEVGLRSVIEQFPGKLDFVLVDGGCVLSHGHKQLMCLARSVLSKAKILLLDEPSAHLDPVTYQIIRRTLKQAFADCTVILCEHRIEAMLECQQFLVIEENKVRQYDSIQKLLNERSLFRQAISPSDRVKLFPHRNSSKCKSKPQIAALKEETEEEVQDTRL
Assay: HBE assay: Ussing chamber assay of CFTR-mediated short-circuit currents
Assay type: cell-based
Details: for EC50: read-out: HBE EC50
How it was run: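 CFTR-mediated Isc (μA/cm²) equals the peak response to apical 20 μM forskolin minus the residual after a 20 μM each BPO/GlyH-101/CFTR inhibitor 172 cocktail, recorded in Ussing chambers at Vhold 0 mV, 37 °C, pH 7.4, with 30 μM apical amiloride. Cells were F508del/MF HBE cultures preincubated 18-24 h with corrector (concentration range or 10 μM) plus 1 μM ivacaftor in 20% human serum.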

[1] = Table 12, read-out: HBE Max Activity (%)
[2] = Table 10, read-out: HBE Max activity (%)
[3] = Table 10, at 10 μM, read-out: HBE activity at 10 (μM) (%)
[4] = Table 13, at 10 μM, read-out: HBE Activity at 10 μM (%)
[5] = Table 11, read-out: HBE Max Activity (%)
[6] = Table 13, read-out: HBE Max Activity (%)
[7] = HBE assay, read-out: HBE Max activity (%)
[8] = Table 12, at 10 μM, read-out: HBE Activity at 10 μM (%)

- EC50 (Table 12): < 1000 nM
- Emax [1]: > 60%
Structure (SMILES): Cc1cccc(C)c1-c1cc2nc(n1)NS(=O)(=O)c1cccc(c1)C(=O)N(Cc1ccn(C3CCCC3)n1)[C@H](CC(C)(C)C)CO2 [Compound 460]

- EC50 (Table 10): < 1000 nM
- Emax [2]: > 60%
Structure (SMILES): Cc1cccc(C)c1-c1cc2nc(n1)NS(=O)(=O)c1cccc(c1)C(=O)N([C@@H](C)c1ccc(-c3c(C)n[nH]c3C)cc1)[C@H](CC(C)(C)C)CO2 [Compound 293]

- activation at 10 µM [3]: < 300%
Structure (SMILES): Cc1cccc(C)c1-c1cc2nc(n1)NS(=O)(=O)c1cccc(c1)C1Oc3cnc4ccccc4c3CN1[C@H](CC(C)(C)C)CO2 (stereo partly shown) [Compound 752]

- activation at 10 µM [4]: > 600%
Structure (SMILES): Cc1cccc(C)c1-c1cc2nc(n1)NS(=O)(=O)c1cccc(c1)C(=O)N(CC(=O)N1C[C@H](C)CC1(C)C)[C@H](CC(C)(C)C)CO2 [Compound 204]

- EC50 (Table 12): < 1000 nM
- Emax [1]: > 60%
Structure (SMILES): Cc1cccc(C)c1-c1cc2nc(n1)NS(=O)(=O)c1cccc(c1)C(=O)N(Cc1ncc(OC3CCC3)cn1)[C@H](CC(C)(C)C)CO2 [Compound 558]

- EC50 (Table 12): < 1000 nM
- Emax [1]: > 60%
Structure (SMILES): Cc1cccc(C)c1-c1cc2nc(n1)NS(=O)(=O)c1cccc(c1)C(=O)N(Cc1nccc(N3CCCC3(C)C)n1)[C@H](CC(C)(C)C)CO2 [Compound 587]

- activation at 10 µM [4]: > 600%
Structure (SMILES): Cc1cccc(C)c1-c1cc2nc(n1)NS(=O)(=O)c1cccc(c1)C(=O)N(CC(=O)N1C[C@H](C)C[C@H](C)C1)[C@H](CC(C)(C)C)CO2 [Compound 181]

- EC50 (Table 11): 1000 to 3000 nM
- Emax [5]: > 60%
Structure (SMILES): CCN(CC)c1cccc(CN2C(=O)c3cccc(c3)S(=O)(=O)Nc3nc(cc(-c4c(C)cccc4C)n3)OC[C@H]2CC(C)(C)C)n1 [Compound 711]

- activation at 10 µM [4]: > 600%
Structure (SMILES): Cc1cccc(C)c1-c1cc2nc(n1)NS(=O)(=O)c1cccc(c1)C(=O)N(CC(=O)N1CCCCC1c1ccccc1F)[C@H](CC(C)(C)C)CO2 (stereo partly shown) [Compound 176]

- activation at 10 µM [3]: > 60%
Structure (SMILES): Cc1cccc(C)c1-c1cc2nc(n1)NS(=O)(=O)c1cccc(c1)C(=O)N(CC1CCN(c3ccncc3)CC1)[C@H](CC(C)(C)C)CO2 [Compound 492]

- EC50 (Table 11): < 1000 nM
Structure (SMILES): Cc1cccc(C)c1-c1cc2nc(n1)NS(=O)(=O)c1cccc(c1)C(=O)N(CC1CCCN(CCC(C)(C)C)C1=O)[C@H](CC(C)(C)C)CO2 (stereo partly shown) [Compound 655]

- EC50 (Table 13): < 1000 nM
- Emax [6]: > 60%
Structure (SMILES): Cc1cccc(C)c1-c1cc2nc(n1)NS(=O)(=O)c1cccc(c1)C(=O)N(Cc1ncc(N3CC4(CCOCC4)C3)cn1)[C@H](CC(C)(C)C)CO2 [Compound 866]

- EC50 (Table 13): < 1000 nM
- Emax [6]: > 60%
Structure (SMILES): Cc1cccc(C)c1-c1cc2nc(n1)NS(=O)(=O)c1cccc(c1)C(=O)N(Cc1ccc(NC(C)C)cn1)[C@H](CC(C)(C)C)CO2 [Compound 996]

- EC50 (Table 12): < 1000 nM
- Emax [1]: > 60%
Structure (SMILES): Cc1cccc(C)c1-c1cc2nc(n1)NS(=O)(=O)c1cccc(c1)C(=O)N(CC(=O)NCC1CCCCC1)[C@H](CC(C)(C)C)CO2 [Compound 230]

- EC50 (HBE assay): < 1000 nM
- Emax [7]: > 60%
Structure (SMILES): COCCOc1cnc(CN2C(=O)c3cccc(c3)S(=O)(=O)Nc3nc(cc(-c4c(C)cccc4C)n3)OC[C@H]2CC(C)(C)C)c(C)c1 [Compound 1382]

- EC50 (HBE assay): < 1000 nM
- Emax [7]: > 60%
Structure (SMILES): CO[C@H](C)[C@@H]1CCCN1c1cncc(CN2C(=O)c3cccc(c3)S(=O)(=O)Nc3nc(cc(-c4c(C)cccc4C)n3)OC[C@H]2CC(C)(C)C)n1 [Compound 1451]

- activation at 10 µM [4]: 30 to 60%
Structure (SMILES): Cc1cccc(C)c1-c1cc2nc(n1)NS(=O)(=O)c1cccc(c1)C(=O)N(CC(=O)N1CC3(CCC3)C1)[C@H](CC(C)(C)C)CO2 [Compound 170]

- EC50 (HBE assay): < 1000 nM
- Emax [7]: > 60%
Structure (SMILES): Cc1cccc(C)c1-c1cc2nc(n1)NS(=O)(=O)c1cccc(c1)C(=O)N(Cc1ncc(N3CC[C@@](C)(F)C3)cn1)[C@H](CC(C)(C)C)CO2 [Compound 1441]

- EC50 (Table 10): < 1000 nM
- Emax [2]: > 60%
Structure (SMILES): Cc1cccc(C)c1-c1cc2nc(n1)NS(=O)(=O)c1cccc(c1)C(=O)N(Cc1cccc(-c3c[nH]nc3C3CC3)c1)[C@H](CC(C)(C)C)CO2 [Compound 308]

- EC50 (Table 11): 1000 to 3000 nM
- Emax [5]: > 60%
Structure (SMILES): CCN(C)c1cccc(CN2C(=O)c3cccc(c3)S(=O)(=O)Nc3nc(cc(-c4c(C)cccc4C)n3)OC[C@H]2CC(C)(C)C)n1 [Compound 715]

- EC50 (Table 10): 1000 to 3000 nM
- Emax [2]: > 60%
Structure (SMILES): Cc1cccc(C)c1-c1cc2nc(n1)NS(=O)(=O)c1cccc(c1)C(=O)N(Cc1ccc(N3CC(=O)NC3=O)cc1)[C@H](CC(C)(C)C)CO2 [Compound 146, 1-[4-[[(11R)-6-(2,6-Dimethylphenyl)-11-(2,2-dimethylpropyl)-2,2,13-trioxo-9-oxa-2λ^6-thia-3,5,12,19-tetrazatricyclo[12.3.1.14,8]nonadeca-1(18),4(19),5,7,14,16-hexaen-12-yl]methyl]phenyl]imidazolidine-2,4-dione]

- activation at 10 µM [8]: > 600%
Structure (SMILES): Cc1cccc(C)c1-c1cc2nc(n1)NS(=O)(=O)c1cccc(c1)C(=O)N(Cc1cccc(N3CCCC3C(F)(F)F)n1)[C@H](CC(C)(C)C)CO2 (stereo partly shown) [Compound 549]

- activation at 10 µM [4]: > 600%
Structure (SMILES): Cc1cccc(C)c1-c1cc2nc(n1)NS(=O)(=O)c1cccc(c1)C(=O)N(CC(=O)N1C[C@H](C)O[C@@H](C)C1)[C@H](CC(C)(C)C)CO2 [Compound 185]

- Emax [2]: > 60%
Structure (SMILES): CC(C)c1cccc(C(C)C)c1-c1cc2nc(n1)NS(=O)(=O)c1cccc(c1)C(=O)N(Cc1ncc(N3CCOCC3)cn1)[C@H](CC(C)(C)C)CO2 [Compound 830]

- EC50 (Table 10): < 1000 nM
- Emax [2]: > 60%
Structure (SMILES): Cc1cccc(C)c1-c1cc2nc(n1)NS(=O)(=O)c1cccc(c1)C(=O)N(Cc1ccc(OCC(=O)N(C)C)cc1)[C@H](CC(C)(C)C)CO2 [Compound 779]

- EC50 (HBE assay): < 1000 nM
- Emax [7]: > 60%
Structure (SMILES): CCOc1cnc(CN2C(=O)c3cccc(c3)S(=O)(=O)Nc3nc(cc(-c4c(C)cccc4C)n3)OC[C@H]2CC2CCC2)nc1 [Compound 1487]

- activation at 10 µM (HBE assay, 10 μM, read-out: HBE Activity at 10 μM (%)): > 60%
Structure (SMILES): Cc1cccc(C)c1-c1cc2nc(n1)NS(=O)(=O)c1cccc(c1)C(=O)N(Cc1ncc(N3CC(C)(C)C3)cn1)[C@H](CCC(C)C)CO2 [Compound 1309, (11R)-12-[[5-(3,3-Dimethylazetidin-1-yl)pyrimidin-2-yl]methyl]-6-(2,6-dimethylphenyl)-11-isopentyl-2,2-dioxo-9-oxa-2λ^6-thia-3,5,12,19-tetrazatricyclo[12.3.1.14,8]nonadeca-1(18),4(19),5,7,14,16-hexaen-13-one]

- EC50 (Table 12): < 1000 nM
- Emax [1]: > 60%
Structure (SMILES): Cc1cccc(C)c1-c1cc2nc(n1)NS(=O)(=O)c1cccc(c1)C(=O)N(Cc1ccc(N3CCC(C)(C)C3)nc1)[C@H](CC(C)(C)C)CO2 [Compound 883]

- activation at 10 µM [8]: > 600%
Structure (SMILES): Cc1cnc(CN2C(=O)c3cccc(c3)S(=O)(=O)Nc3nc(cc(-c4c(C)cccc4C)n3)OC[C@H]2CC(C)(C)C)nc1N1CCCC1(C)C [Compound 327]

- EC50 (Table 11): < 1000 nM
- Emax [5]: > 60%
Structure (SMILES): Cc1cccc(C)c1-c1cc2nc(n1)NS(=O)(=O)c1cccc(c1)C(=O)N(Cc1ncccc1N(C)CC(C)(C)C)[C@H](CC(C)(C)C)CO2 [Compound 725]

- EC50 (Table 11): < 1000 nM
- Emax [5]: > 60%
Structure (SMILES): Cc1cccc(C)c1-c1cc2nc(n1)NS(=O)(=O)c1cccc(c1)C(=O)N(Cc1nccc(OC(C)C)n1)[C@H](CC(C)(C)C)CO2 [Compound 656]

- activation at 10 µM [3]: > 60%
Structure (SMILES): Cc1cccc(C)c1-c1cc2nc(n1)NS(=O)(=O)c1cccc(c1)C(=O)N(Cc1ccc(-c3cc[nH]n3)cc1)[C@H](CC(C)(C)C)CO2 [Compound 290]

- activation at 10 µM [4]: > 600%
Structure (SMILES): Cc1cccc(C)c1-c1cc2nc(n1)NS(=O)(=O)c1cccc(c1)C(=O)N(CC(=O)NC1CC3(CCC3)C1)[C@H](CC(C)(C)C)CO2 [Compound 171]
